Patent US7875300B2, “Methods for reducing circulating glucose levels” (Rutgers, The State University of New Jersey, priority 2006, dated 2011)
“And” between values parts separate entries of the source, which are not always exact repeats. Identical values can stand only once.

What was measured:
[1] = test system: high fat diet-induced diabetic model (male C57BL/6 mice); test: Oral glucose tolerance test in high fat diet-induced diabetic model; type: in vivo; conditions: OGTT after 1 wk
Protocol: The Aframomum melegueta-derived hypoglycemic extract product of Example 1 was tested in vivo for hypoglycemic activity using a high fat diet-induced diabetic model.
(§1) Five week old male C57BL/6 mice (Jackson Laboratories, Bar Harbor, Me.) were placed on either low fat or high fat rodent diets (D12450B, 10% kcal, low fat or D12492, 60% kcal, high fat, Research Diets, New Brunswick, N.J.).
The mice were housed individually under controlled temperature (70° F.) and 12 hr light-dark cycles. Food (standard mouse chow, Purina) and water were available on an ad libitum basis for 7 days. The mice were then randomly divided into control Groups 1 and 6 (n=8-10), treatment Groups 2 and 3 (n=6), and two positive control Groups 4 and 5 (n=6) for the study. The control mice continued to receive either a high fat diet or a low fat diet, and the treatment groups were fed the high fat diet for a 14 week period. Two groups of mice were gavaged with PMI006 at a dose of 500 mg/kg daily. As a positive control, Metformin was administered at a dose of 300 mg/kg in two groups of positive control mice.
An oral glucose tolerance test was performed after seven days of treatment. On the test day, animals were fasted for seven hours and glucose (2.0 g/kg) was then orally administered to them. […]
Mice were deprived of food during testing and the blood glucose levels of whole blood (obtained from a tail nick procedure) were determined at certain times. The Aframomum melegueta-derived hypoglycemic extract product of Example 1 was orally administered at a dosage of 500 mg/kg to the two treatment Groups 2 and 3 either 1.5 or 3.0 hours before the glucose challenge. Metformin was orally administered at a dosage of 300 mg/kg to the animals in the positive control Groups 4 and 5 either 1.5 or 3.0 hours before the glucose challenge.

[2] = test system: male C57BL/6 mice on high fat diet; test: Fasting blood glucose levels after a single gavage in mice on a high fat diet; type: in vivo; conditions: 300 mg, Group 5, gavage
Protocol: The Aframomum melegueta-derived hypoglycemic extract product of Example 1 was tested in vivo for hypoglycemic activity.
as §1
The mice were housed four to a cage under controlled temperature ([…]) and 12 hr light-dark cycles. Food (standard mouse chow, Purina) and water were available on an ad libitum basis for 7 days. The mice were then randomly divided into six groups (n=6) for the study. Five groups of mice were fed the high fat diet for 12 weeks (Groups 1-5), and the sixth group (Group 6) was fed the low fat diet for 12 weeks. Weekly food intake per cage and individual body weights were determined throughout the study.
After 12 weeks, all mice (Groups 1-6) were fasted for 4 hrs. After fasting, Group 1 mice provided a control and were gavaged with saline containing 5% DMSO; mice of Groups 2-4 were gavaged with different concentrations of the hypoglycemic extract product of Example 1 in 5% DMSO; and, Group 5 mice were gavaged with 300 mg/kg of Metformin in 5% DMSO as a positive control. Group 6 mice, which were fed a low fat diet, were gavaged with saline containing 5% DMSO and thus were also used as a control. Blood glucose levels were measured with a One Touch® Ultra® handheld glucometer (Lifescan, Milpitas, Calif.) using One Touch® Ultra® test strips. Mice were deprived of food during testing and the blood glucose levels of whole blood (obtained from a tail nick procedure) were determined at certain times (0, 3, and 5 hours after fasting commenced).
[…] with compositions comprising […]. The blood glucose levels were tested immediately after treatment (0 hours) and then 3 and 5 hours after treatment.

Structure (SMILES): CN(C)C(=N)N=C(N)N [Metformin]
- Plasma glucose ([1]; 300 mg/kg oral 1.5 hr before glucose challenge, Group 4, 0 min): 160 ± 4.9 mg/dL
- Plasma glucose ([1]; 300 mg/kg oral 1.5 hr before glucose challenge, Group 4, 30 min): 235 ± 12.2 mg/dL
- Plasma glucose ([1]; 300 mg/kg oral 1.5 hr before glucose challenge, Group 4, 60 min): 190 ± 11.1 mg/dL
- Plasma glucose ([1]; 300 mg/kg oral 1.5 hr before glucose challenge, Group 4, 90 min): 164 ± 6.0 mg/dL
- Plasma glucose ([1]; 300 mg/kg oral 3 hr before glucose challenge, Group 5, 0 min): 173 ± 13.2 mg/dL
- Plasma glucose ([1]; 300 mg/kg oral 3 hr before glucose challenge, Group 5, 30 min): 207 ± 26.7 mg/dL
- Plasma glucose ([1]; 300 mg/kg oral 3 hr before glucose challenge, Group 5, 60 min): 171 ± 14.8 mg/dL
- Plasma glucose ([1]; 300 mg/kg oral 3 hr before glucose challenge, Group 5, 90 min): 158 ± 6.7 mg/dL
- Avg. glucose ([2]; Time - 0 hours): 218.5 mg/dL
- glucose (mg/dl), individual animals ([2]; Time - 0 hours): 252 mg/dL and 188 mg/dL and 194 mg/dL and 184 mg/dL and 274 mg/dL and 219 mg/dL
- Avg. glucose ([2]; Time - 3 hours): 149.7 mg/dL
- glucose (mg/dl), individual animals ([2]; Time - 3 hours): 66 mg/dL and 148 mg/dL and 161 mg/dL and 147 mg/dL and 157 mg/dL and 219 mg/dL
- Average value ([2]; Time - 5 hours): 128.2 mg/dL
- glucose (mg/dl), individual animals ([2]; Time - 5 hours): 145 mg/dL and 96 mg/dL and 119 mg/dL and 124 mg/dL and 162 mg/dL and 123 mg/dL
